Drawing on PubChem BioAssay AID328 (DTP/NCI, 2004), this text covers T/C for 18 compounds.

The test deals with BDF1 mice, P388 leukemia ip, median survival T/C. Description: NCI In Vivo Anticancer Drug Screen. Data for tumor model P388 Leukemia (intraperitoneal) in B6D2F1 (BDF1) mice. Conditions: endpoint: median survival time, higher = longer survival. The procedure, abridged: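 Each value expresses how treatment altered survival: treated-mouse outcome over vehicle-mouse outcome, both groups bearing the transplanted tumour.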

Setting [1] is: dose: 100.0 mg/kg/injection, schedule: Q01DX009 (ip), vehicle: saline with Tween-80.
Setting [2] is: dose: 100.0 mg/kg/injection, schedule: Q04DX003 (ip), vehicle: saline with Tween-80.
The mark [3] stands for this setting: dose: 200.0 mg/kg/injection, schedule: Q01DX009 (ip), vehicle: saline with Tween-80.
Where [4] appears, read: dose: 200.0 mg/kg/injection, schedule: Q04DX003 (ip), vehicle: saline with Tween-80.
[5] abbreviates: dose: 400.0 mg/kg/injection, schedule: Q01DX009 (ip), vehicle: saline with Tween-80.
The mark [6] stands for this setting: dose: 50.0 mg/kg/injection, schedule: Q01DX009 (ip), vehicle: saline with Tween-80.
Where [7] appears, read: dose: 12.5 mg/kg/injection, schedule: Q01DX009 (ip), vehicle: water.
[8] abbreviates: dose: 75.0 mg/kg/injection, schedule: Q01DX009 (ip), vehicle: Klucel (hydroxypropylcellulose) (HPC).

“And” between values parts separate entries of the source, which are not always exact repeats. Equal entries are not always repeated. Inconclusive results and toxic doses are left out.

`O=C(Nc1ccc([N+](=O)[O-])cc1)Nc1ccc([N+](=O)[O-])cc1` (tested in a mixture with another compound): the T/C runs as follows: (dose: 100.0 mg/kg/injection, schedule: Q01DX009 (ip), vehicle: saline) 109 % of control; (dose: 100.0 mg/kg/injection, schedule: Q04DX003 (ip), vehicle: saline) 112 % of control and 104 % of control; (dose: 200.0 mg/kg/injection, schedule: Q01DX009 (ip), vehicle: saline) 122 % of control; (dose: 200.0 mg/kg/injection, schedule: Q04DX003 (ip), vehicle: saline) 100 % of control and 91 % of control; (dose: 400.0 mg/kg/injection, schedule: Q01DX009 (ip), vehicle: saline) 118 % of control; (dose: 400.0 mg/kg/injection, schedule: Q04DX003 (ip), vehicle: saline) 112 % of control and 100 % of control.
With `O=c1cc(CCl)[nH]nc1CCl`, the T/C is 166 % of control (dose: 14.5 mg/kg/injection, schedule: Q04DX003 (ip), vehicle: saline with Tween-80); 159 % of control (dose: 22.0 mg/kg/injection, schedule: Q04DX003 (ip), vehicle: saline with Tween-80); 151 % of control (dose: 33.0 mg/kg/injection, schedule: Q04DX003 (ip), vehicle: saline with Tween-80); 98 % of control (dose: 75.0 mg/kg/injection, schedule: Q04DX003 (ip), vehicle: saline with Tween-80).
As to `C[C@]12[C@@H]3CC(=O)C[C@@]1(CC[C@@H]1[C@@H]2CC[C@]2(C)OC(=O)CC[C@@H]12)SS3`, the T/C is 100 % of control under setting [1]; 104 % of control under setting [2]; 91 % of control under setting [3]; 90 % of control under setting [4]; 95 % of control under setting [5]; 90 % of control (dose: 400.0 mg/kg/injection, schedule: Q04DX003 (ip), vehicle: saline with Tween-80).
As to `O=C(O)CCCCCCCCC(=O)O`, the T/C runs as follows: under setting [6], 98 % of control; under setting [1], 98 % of control; under setting [3], 94 % of control; under setting [5], 93 % of control.
Consider `CC(C)N(C(C)C)S(=O)(=O)c1ccccc1C(O)(c1ccccc1)c1ccccc1`, for which the T/C was 90 % of control (dose: 25.0 mg/kg/injection, schedule: Q01DX009 (ip), vehicle: saline with Tween-80); 86 % of control under setting [6]; 90 % of control under setting [1].
`Oc1ccc(F)c2cccnc12`: the T/C (dose: 12.5 mg/kg/injection, schedule: Q01DX010 (ip), vehicle: carboxymethylcellulose (CMC)) is 100 % of control; the T/C (dose: 25.0 mg/kg/injection, schedule: Q01DX010 (ip), vehicle: carboxymethylcellulose (CMC)) was 105 % of control; the T/C (dose: 50.0 mg/kg/injection, schedule: Q01DX010 (ip), vehicle: carboxymethylcellulose (CMC)) is 100 % of control.
Turning to `N#CCc1cnc2nc(N)nc(N)c2n1`, the T/C was 102 % of control (dose: 3.13 mg/kg/injection, schedule: Q01DX009 (ip), vehicle: other); 98 % of control (dose: 6.25 mg/kg/injection, schedule: Q01DX009 (ip), vehicle: other); 107 % of control (dose: 12.5 mg/kg/injection, schedule: Q01DX009 (ip), vehicle: other); 107 % of control (dose: 25.0 mg/kg/injection, schedule: Q01DX009 (ip), vehicle: other).
Consider `Nc1nccnc1C(=O)O`, for which the T/C under setting [7] was 102 % of control; the T/C (dose: 25.0 mg/kg/injection, schedule: Q01DX009 (ip), vehicle: water) is 109 % of control; the T/C (dose: 50.0 mg/kg/injection, schedule: Q01DX009 (ip), vehicle: water) was 117 % of control; the T/C (dose: 100.0 mg/kg/injection, schedule: Q01DX009 (ip), vehicle: water) was 105 % of control; the T/C (dose: 200.0 mg/kg/injection, schedule: Q04DX003 (ip), vehicle: water) is 101 % of control; the T/C (dose: 300.0 mg/kg/injection, schedule: Q04DX003 (ip), vehicle: water) was 110 % of control. Besides, the T/C (dose: 400.0 mg/kg/injection, schedule: Q01DX009 (ip), vehicle: water) was 109 % of control; the T/C (dose: 400.0 mg/kg/injection, schedule: Q04DX003 (ip), vehicle: water) was 105 % of control; the T/C (dose: 600.0 mg/kg/injection, schedule: Q04DX003 (ip), vehicle: water) was 100 % of control.
Turning to `Cc1ccc(SS(=O)(=O)c2ccc(C)cc2)cc1`, the T/C is, setting by setting: (dose: 25.0 mg/kg/injection, schedule: Q01DX009 (ip), vehicle: saline sonified) 108 % of control; (dose: 50.0 mg/kg/injection, schedule: Q01DX009 (ip), vehicle: saline sonified) 117 % of control; (dose: 100.0 mg/kg/injection, schedule: Q01DX009 (ip), vehicle: saline sonified) 117 % of control.
As for `C=CS(=O)(=O)c1ccccc1`, the T/C was 114 % of control (dose: 18.0 mg/kg/injection, schedule: Q01DX009 (ip), vehicle: saline with Tween-80); 90 % of control (dose: 18.0 mg/kg/injection, schedule: Q04DX003 (ip), vehicle: saline with Tween-80); 100 % of control (dose: 24.0 mg/kg/injection, schedule: Q01DX009 (ip), vehicle: saline with Tween-80); 116 % of control (dose: 36.0 mg/kg/injection, schedule: Q01DX009 (ip), vehicle: saline with Tween-80); 100 % of control (dose: 36.0 mg/kg/injection, schedule: Q04DX003 (ip), vehicle: saline with Tween-80); 114 % of control (dose: 72.0 mg/kg/injection, schedule: Q01DX009 (ip), vehicle: saline with Tween-80). For the same compound, the T/C (dose: 72.0 mg/kg/injection, schedule: Q04DX003 (ip), vehicle: saline with Tween-80) is 109 % of control.
For `COc1cccc2c1C(=O)c1c(O)c3c(c(O)c1C2=O)CC(O)(/C(C)=N/NC(=O)CCC(=O)N/N=C(\C)C1(O)Cc2c(O)c4c(c(O)c2C(OC2CC(N)C(O)C(C)O2)C1)C(=O)c1c(OC)cccc1C4=O)CC3OC1CC(N)C(O)C(C)O1` (stereo not drawn), the T/C was 158 % of control (dose: 14.4 mg/kg/injection, schedule: Q04DX003 (ip), vehicle: water) and 109 % of control (dose: 40.0 mg/kg/injection, schedule: Q04DX003 (ip), vehicle: water).
Consider `O=S(=O)(O)O.O=S(=O)([O-])[O-].O=[N+]([O-])O.[Co+3].[Co+3].[NH2-].[NH2-].[NH2-].[NH2-].[NH2-].[NH2-].[NH2-].[NH2-].[NH2-]`, for which the T/C runs as follows: (dose: 6.25 mg/kg/injection, schedule: Q01DX009 (ip), vehicle: water) 97 % of control; under setting [7], 124 % of control.
For `CC(=O)OC1OC(CSC(=N)N)C(OC(C)=O)C(OC(C)=O)C1OC(C)=O` (stereo not drawn), the T/C by setting is: under setting [6], 116 % of control; under setting [1], 119 % of control; under setting [3], 110 % of control.
As for `CCOc1cccc(OCC)c1C`, the T/C is, setting by setting: under setting [8], 100 % of control; (dose: 150.0 mg/kg/injection, schedule: Q01DX009 (ip), vehicle: Klucel (hydroxypropylcellulose) (HPC)) 100 % of control; (dose: 300.0 mg/kg/injection, schedule: Q01DX009 (ip), vehicle: Klucel (hydroxypropylcellulose) (HPC)) 100 % of control.
For the compound `Nc1[nH]c(=S)[nH]c(=O)c1N`, the T/C is, setting by setting: under setting [8], 115 % of control; (dose: 100.0 mg/kg/injection, schedule: Q01DX001 (ip), vehicle: Klucel (hydroxypropylcellulose) (HPC)) 95 % of control; (dose: 200.0 mg/kg/injection, schedule: Q01DX001 (ip), vehicle: Klucel (hydroxypropylcellulose) (HPC)) 95 % of control.
`N#CC(C#N)=C(C#N)C#N`: the T/C (dose: 0.78 mg/kg/injection, schedule: Q01DX009 (ip), vehicle: Klucel (hydroxypropylcellulose) (HPC)) is 90 % of control; the T/C (dose: 1.56 mg/kg/injection, schedule: Q01DX009 (ip), vehicle: Klucel (hydroxypropylcellulose) (HPC)) is 100 % of control; the T/C (dose: 1.56 mg/kg/injection, schedule: Q04DX003 (ip), vehicle: Klucel (hydroxypropylcellulose) (HPC)) was 100 % of control; the T/C (dose: 3.13 mg/kg/injection, schedule: Q01DX009 (ip), vehicle: Klucel (hydroxypropylcellulose) (HPC)) was 100 % of control; the T/C (dose: 3.13 mg/kg/injection, schedule: Q04DX003 (ip), vehicle: Klucel (hydroxypropylcellulose) (HPC)) was 100 % of control.
`COC(=O)c1[nH]c(=O)[nH]c(=O)c1F`: the T/C is 113 % of control (dose: 25.0 mg/kg/injection, schedule: Q04DX003 (ip), vehicle: saline with Tween-80); 122 % of control under setting [2]; 90 % of control under setting [4].
For the compound `CC(C)(C)/C([O-])=N/[N+](C)(C)C`, the T/C runs as follows: (dose: 50.0 mg/kg/injection, schedule: Q01DX001 (ip), vehicle: saline) 109 % of control; (dose: 100.0 mg/kg/injection, schedule: Q01DX001 (ip), vehicle: saline) 104 % of control; (dose: 200.0 mg/kg/injection, schedule: Q01DX001 (ip), vehicle: saline) 104 % of control.
